Laboratory results published in patent US20240041991A1, “STABLE LIQUID DISPERSINB COMPOSITIONS” (KANE BIOTECH INC., priority 2020, published 2024).
Like-named read-outs stand apart in the source and are kept apart here. Marks after values point to notes of the source that are not given here.

Tested on: DispersinB
Type: biochemical, Aggregatibacter actinomycetemcomitans
Conditions: for % enzymatic activity of DispersinB (Mean): polyol % as in label
Description: Samples from each formula was incubated at 3 different temperatures (42° C., 52° C. and 62° C.) for 3 hours. Following a 3 hour incubation, the samples were brought to room temperature for enzymatic activity assay.
Two-tailed paired T-test was performed by to compare each polyol containing treatment with the treatment devoid of polyol. Treatment with probability values (p) less than 5% (0.05) was considered significant.

For `O[C@H]1[C@H](O)[C@@H](O)[C@H](O)[C@@H](O)[C@H]1O` [inositol, Inositol], the “% enzymatic activity of DispersinB (Mean)” value (shortened to “% enzymatic activity”) (4° C., freshly made control without polyol = 100%, listed as 0.25% Inositol) was 104%, the “% enzymatic activity” value (4° C., freshly made control without polyol = 100%, listed as 0.5% Inositol) was 101% and the “% enzymatic activity” value (4° C., freshly made control without polyol = 100%, listed as 1% Inositol) was 101%. For the same molecule, the “% enzymatic activity” value (4° C., freshly made control without polyol = 100%, listed as 2% Inositol) was 102%, the “% enzymatic activity” value (4° C., freshly made control without polyol = 100%, listed as 4% Inositol) was 107* % and the “% enzymatic activity” value (4° C., freshly made control without polyol = 100%, listed as 6% Inositol) was 112* %. For the same molecule, the “% enzymatic activity” value (4° C., freshly made control without polyol = 100%, listed as 8% Inositol) was 118* %, the “% enzymatic activity” value (4° C., freshly made control without polyol = 100%, listed as 10% Inositol) was 115* % and the “% enzymatic activity” value (4° C., freshly made control without polyol = 100%, listed as 12% Inositol) was 118* %. The “% enzymatic activity” value (4° C., freshly made control without polyol = 100%, listed as 14% Inositol) was 124* %, the “% enzymatic activity” value (42° C. for 3 hours, control without polyol = 100%, listed as 0.25% Inositol) was 96* % and the “% enzymatic activity” value (42° C. for 3 hours, control without polyol = 100%, listed as 0.5% Inositol) was 97* %. For the same molecule, the “% enzymatic activity” value (42° C. for 3 hours, control without polyol = 100%, listed as 1% Inositol) was 99* %, the “% enzymatic activity” value (42° C. for 3 hours, control without polyol = 100%, listed as 2% Inositol) was 101* % and the “% enzymatic activity” value (42° C. for 3 hours, control without polyol = 100%, listed as 4% Inositol) was 106* %. For the same molecule, the “% enzymatic activity” value (42° C. for 3 hours, control without polyol = 100%, listed as 6% Inositol) was 112* %, the “% enzymatic activity” value (42° C. for 3 hours, control without polyol = 100%, listed as 8% Inositol) was 126* % and the “% enzymatic activity” value (42° C. for 3 hours, control without polyol = 100%, listed as 10% Inositol) was 113* %. For the same molecule, the “% enzymatic activity” value (42° C. for 3 hours, control without polyol = 100%, listed as 12% Inositol) was 118* %, the “% enzymatic activity” value (42° C. for 3 hours, control without polyol = 100%, listed as 14% Inositol) was 115% and the “temperature stabilizing effect on DispersinB at elevated temperatures” value (42° C., 52° C., and 62° C.) was “exhibited temperature stabilizing effect”. The “% enzymatic activity” value (52° C. for 3 hours, control without polyol = 100%, listed as 0.5% Inositol) was 1* %, the “% enzymatic activity” value (52° C. for 3 hours, control without polyol = 100%, listed as 1% Inositol) was 3* % and the “% enzymatic activity” value (52° C. for 3 hours, control without polyol = 100%, listed as 2% Inositol) was 8* %. For the same molecule, the “% enzymatic activity” value (52° C. for 3 hours, control without polyol = 100%, listed as 4% Inositol) was 19* %, the “% enzymatic activity” value (52° C. for 3 hours, control without polyol = 100%, listed as 6% Inositol) was 37* % and the “% enzymatic activity” value (52° C. for 3 hours, control without polyol = 100%, listed as 8% Inositol) was 66* %. For the same molecule, the “% enzymatic activity” value (52° C. for 3 hours, control without polyol = 100%, listed as 10% Inositol) was 77* %, the “% enzymatic activity” value (52° C. for 3 hours, control without polyol = 100%, listed as 12% Inositol) was 86* % and the “% enzymatic activity” value (52° C. for 3 hours, control without polyol = 100%, listed as 14% Inositol) was 92* %.
